The text below walks through data of ChEMBL document CHEMBL1201862, “PubChem BioAssay data set” (2004).

Among the test systems are ACHN; HCT-15; HL-60; HOP-92; HT-29; KM12; M14; MOLT-4; NCI-H226; NCI-H522; OVCAR-5; RPMI-8226; RXF 393; SF-268; SF-295; SN12C; TK-10; U-251; UACC-62.
Common to all, as to test: growth of human tumour cells (NCI), 48 h

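How tested: cells in 96-well plates exposed to compound for 48 hours at five concentrations. GI50 = concentration required for 50% inhibition of growth.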 Calls of active or inactive are those of the source. Cut-off read from the data, not from the text of the source: active = GI50 up to about 1.1 µM and inactive = higher.

With `Cc1cc2occ(-c3ccc(Cl)cc3)c2c(=O)o1`, the GI50 was > 100 µM (inactive) with ACHN; greater than 100 µM in the experiment with HCT-15; > 100 µM (inactive) in the experiment with HL-60; > 100 µM (inactive) in the experiment on HOP-92; > 100 µM (inactive) in the experiment on HT-29; > 100 µM (inactive) with KM12. The GI50 is 88.1 µM (inactive) in the experiment with M14; 67.9 µM (inactive) with MOLT-4; > 100 µM (inactive) with NCI-H226; 66.5 µM (inactive) in the experiment on NCI-H522; > 100 µM (inactive) with OVCAR-5; 61.4 µM (inactive) in the experiment on RPMI-8226. For the same molecule, the GI50 in the experiment on RXF 393, in the experiment with SF-268, in the experiment on SF-295, with SN12C, in the experiment on TK-10 and with U-251 was > 100 µM (inactive) throughout. Besides, the GI50 in the experiment with UACC-62 was > 100 µM (inactive).

Turning to `Cc1cccc(/N=N/c2ccc(/N=N/c3c(O)ccc4ccccc34)cc2C)c1`, the GI50 in the experiment on ACHN was 49.3 µM (inactive); in the experiment on HCT-15, greater than 100 µM; in the experiment with HL-60 it was 33.5 µM (inactive); with HOP-92 it was 32.2 µM (inactive); in the experiment on HT-29, > 100 µM (inactive); in the experiment with KM12, > 100 µM (inactive). Also, the GI50 in the experiment on M14 is 41.7 µM (inactive); in the experiment on MOLT-4 it was > 100 µM (inactive); in the experiment with NCI-H226, > 100 µM (inactive); with NCI-H522, 14.2 µM (inactive); in the experiment on OVCAR-5, > 100 µM (inactive); in the experiment with RPMI-8226, > 100 µM (inactive). Further, the GI50 was 27 µM (inactive) in the experiment on RXF 393; > 100 µM (inactive) with SF-268; 44.2 µM (inactive) in the experiment on SF-295; > 100 µM (inactive) in the experiment with TK-10; 54.2 µM (inactive) with U-251; 72.4 µM (inactive) with UACC-62.

As to `CC(=O)OC12C(C)=C(C)C(=O)N1c1ccccc1N2C(C)=O` (stereo not drawn), the GI50 in the experiment on ACHN was > 100 µM (inactive); in the experiment on HCT-15, greater than 100 µM; in the experiment with HL-60 it was > 100 µM (inactive); with HOP-92 it was > 100 µM (inactive); in the experiment with HT-29, > 100 µM (inactive); in the experiment with KM12, > 100 µM (inactive). In addition, the GI50 in the experiment with M14, in the experiment with MOLT-4, with NCI-H226, with NCI-H522, in the experiment with OVCAR-5 and in the experiment with RPMI-8226 was > 100 µM (inactive) each time. Moreover, the GI50 in the experiment with RXF 393, in the experiment on SF-268, in the experiment with SF-295, in the experiment on TK-10, in the experiment with U-251 and with UACC-62 was > 100 µM (inactive) throughout.

As for `CCOC(=O)c1cc(-c2ccc(OC)cc2)c([N+](=O)[O-])n1C`, the GI50 in the experiment on ACHN was > 10 µM (inactive); in the experiment with HCT-15 it was greater than 10 µM; in the experiment on HL-60, > 10 µM (inactive); in the experiment with HOP-92, > 10 µM (inactive); in the experiment with HT-29 it was > 10 µM (inactive); in the experiment on KM12, > 10 µM (inactive). The GI50 with M14 was > 10 µM (inactive); with MOLT-4, > 10 µM (inactive); in the experiment with NCI-H226, > 10 µM (inactive); in the experiment with NCI-H522, > 10 µM (inactive); in the experiment on OVCAR-5, > 10 µM (inactive); with RXF 393 it was 2.13 µM (inactive). Also, the GI50 in the experiment with SF-268, in the experiment on SF-295, in the experiment with SN12C, with U-251 and in the experiment with UACC-62 was > 10 µM (inactive) throughout.

On to `Cc1ccccc1NC(=O)C(=O)C(C(=O)c1ccccc1F)C1OC(=O)c2ccccc21` (stereo not drawn), for which the GI50 is 43.7 µM (inactive) in the experiment with ACHN; 24.5 µM with HCT-15; 16.3 µM (inactive) with HL-60; 33.3 µM (inactive) in the experiment on HOP-92; 40.3 µM (inactive) in the experiment on HT-29; 23 µM (inactive) in the experiment with KM12. Further, the GI50 is 16.6 µM (inactive) in the experiment with M14; 9.59 µM (inactive) in the experiment on MOLT-4; 3.38 µM (inactive) in the experiment on NCI-H226; 5.68 µM (inactive) in the experiment with NCI-H522; 41.8 µM (inactive) in the experiment with OVCAR-5; 11.9 µM (inactive) with RPMI-8226. The GI50 with RXF 393 was 8.53 µM (inactive); in the experiment on SF-268 it was 18.9 µM (inactive); in the experiment with SN12C, 25 µM (inactive); with TK-10 it was 43 µM (inactive); in the experiment with U-251, 7.53 µM (inactive).

On to `O=c1[nH]c2c(c(=O)[nH]1)SC(c1ccccc1)C2` (stereo not drawn), for which the GI50 was > 100 µM (inactive) in the experiment on ACHN; greater than 100 µM in the experiment on HCT-15; > 100 µM (inactive) with HL-60; > 100 µM (inactive) in the experiment with HOP-92; > 100 µM (inactive) in the experiment on HT-29; > 100 µM (inactive) with KM12. Also, the GI50 with M14, in the experiment with MOLT-4, in the experiment on NCI-H226, in the experiment with NCI-H522, in the experiment with OVCAR-5 and in the experiment with RPMI-8226 was > 100 µM (inactive) each time. The GI50 in the experiment with RXF 393, with SF-268, in the experiment on SF-295 and in the experiment with U-251 was > 100 µM (inactive) in each case.

Take `COc1ccc(OC)c(/C=N/N=C(\N)NO)c1`: the GI50 is 12.3 µM (inactive) in the experiment with ACHN; 5.98 µM with HCT-15; 25.4 µM (inactive) in the experiment on HL-60; 23.3 µM (inactive) with HOP-92; 36.6 µM (inactive) with HT-29; 22.4 µM (inactive) with KM12. The GI50 is 20.1 µM (inactive) with M14; 16.6 µM (inactive) in the experiment with NCI-H226; 14.3 µM (inactive) in the experiment with NCI-H522; 27.4 µM (inactive) in the experiment with OVCAR-5; 39.5 µM (inactive) with RXF 393; 23.3 µM (inactive) in the experiment on SF-268. For the same molecule, the GI50 was 21.9 µM (inactive) with SF-295; 31.4 µM (inactive) with SN12C; 19.4 µM (inactive) in the experiment with TK-10; 34.4 µM (inactive) in the experiment with U-251; 4.61 µM (inactive) with UACC-62.

In the case of `OC1(C(Sc2ccccc2)Sc2ccccc2)CCCCCC1`, the GI50 in the experiment with ACHN was 26 µM (inactive); with HCT-15, 24.4 µM; with HL-60, 24 µM (inactive); in the experiment on HOP-92 it was 28.6 µM (inactive); in the experiment on KM12, 34.9 µM (inactive); with M14, 18.7 µM (inactive). Besides, the GI50 in the experiment on MOLT-4 was 28.6 µM (inactive); in the experiment on NCI-H522 it was 11.5 µM (inactive); in the experiment with RPMI-8226, 21.5 µM (inactive); in the experiment on RXF 393, > 10 µM (inactive); in the experiment with SF-268, 33.1 µM (inactive); in the experiment on SF-295, 26.8 µM (inactive). Besides, the GI50 in the experiment on SN12C was 16.2 µM (inactive); in the experiment on TK-10 it was 58.2 µM (inactive); in the experiment with U-251, 21.8 µM (inactive); with UACC-62 it was 11.5 µM (inactive).
